Tests used:
RANKL expression = details: cultured bone marrow stromal cell line; cited from earlier work
[1] = test system: arthritis pain (mechanical hyperalgesia); assay: Rat complete Freund's adjuvant (CFA) model of arthritis pain; format: in vivo; details: day 14 post CFA
Method: The effect of RANK/RANKL antagonism on arthritis pain was examined in the rat complete Freund's adjuvant (CFA) model of arthritis pain. In this model, injection of 100% complete Freund's adjuvant (CFA) in a 75 μL volume into the left hind paws is followed by a 10-14 day period to allow for the development of arthritis pain. Animals were orally administered zoledronic acid 9 mg/kg (or 54 mg/m^2), or zoledronic acid 60 mg/kg (or 360 mg/m^2) to produce RANK/RANKL antagonism, divided in three equal daily doses on the first three days post CFA injection, or vehicle (control). Drug was dissolved in distilled water and prepared fresh daily. Animals were fasted prior to dosing.
Arthritis pain (mechanical hyperalgesia) in the vehicle and drug-treated animals was evaluated on day 14 post CFA injection using a digital Randall-Selitto device (dRS; IITC Life Sciences, Woodland Hills, Calif.). […] Paw compression threshold was measured by applying increasing pressure to the plantar surface of the hind paw with a dome-shaped tip placed between the 3rd and 4th metatarsus. […]
Reversal of arthritis pain in the ipsilateral (CFA-injected) paw was calculated according to the formula: % reversal=(ipsilateral drug threshold−ipsilateral vehicle threshold)/(contralateral vehicle threshold−ipsilateral vehicle threshold)×100. […]

low back pain = assay: Treatment of patient suffering from low back pain; format: in vivo, human; details: patient two, 60 mg subcutaneously, within 6 months after treatment
Method: PROLIA® (denosumab, 60 mg) is administered subcutaneously to a patient suffering from low back pain. […] The injection is repeated every six months. IMBRUVICA® (ibrutinib, 420 mg taken orally once daily (three 140 mg capsules once daily)) is administered to a patient suffering from low back pain. […] IMBRUVICA® (ibrutinib, 560 mg taken orally once daily, (four 140 mg capsules once daily)) is administered to a patient suffering from low back pain.

[2] = test system: pain associated with arthritis; assay: Treatment of patient suffering from pain associated with arthritis; format: in vivo, human; details: patient two, 60 mg subcutaneously, within 6 months after treatment
Method: PROLIA® (denosumab, 60 mg) is administered subcutaneously to a patient suffering from pain associated with arthritis. […] IMBRUVICA® (ibrutinib, 420 mg taken orally once daily (three 140 mg capsules once daily)) is administered to a patient suffering from pain associated with arthritis. […] IMBRUVICA® (ibrutinib, 560 mg taken orally once daily, (four 140 mg capsules once daily)) is administered to a patient suffering from pain associated with arthritis.

[3] = test system: complex regional pain syndrome; assay: Treatment of patient suffering from complex regional pain syndrome; format: in vivo, human; details: patient one, 60 mg subcutaneously, within 6 months after treatment
Method: PROLIA® (denosumab, 60 mg) is administered subcutaneously to a patient suffering from complex regional pain syndrome. […] The injection is repeated every six months.

neuropathic pain = assay: Treatment of patient suffering from neuropathic pain; format: in vivo, human; details: patient one, 60 mg subcutaneously, within 6 months after treatment
Method: PROLIA® (denosumab, 60 mg) is administered subcutaneously to a patient suffering from neuropathic pain. […] The injection is repeated every six months.

[4] = test system: pain associated with osteoarthritis; assay: Treatment of patient suffering from pain associated with osteoarthritis; format: in vivo, human; details: patient one, 60 mg subcutaneously, within 6 months after treatment
Method: PROLIA® (denosumab, 60 mg) is administered subcutaneously to a patient suffering from pain associated with osteoarthritis. […] The injection is repeated every six months. IMBRUVICA® (ibrutinib, 420 mg taken orally once daily (three 140 mg capsules once daily)) is administered to a patient suffering from pain associated with osteoarthritis. […] IMBRUVICA® (ibrutinib, 560 mg taken orally once daily, (four 140 mg capsules once daily)) is administered to a patient suffering from pain associated with osteoarthritis.

Molecule: O=P(O)(O)C(O)(Cc1cnc2ccccn12)P(=O)(O)O [Minodronic acid, minodronic acid]
- RANKL expression (RANKL expression): inhibit[] RANKL expression

Molecule: O=P(O)(O)C(O)(Cn1ccnc1)P(=O)(O)O [zoledronic acid]
- reversal of arthritis pain ([1]; oral 9 mg/kg (54 mg/m^2) total in three daily doses): 33%
- reversal of arthritis pain ([1]; oral 60 mg/kg (360 mg/m^2) total in three daily doses): 54%

Molecule: denosumab [PROLIA]
- pain experienced by patient (low back pain): less pain
- pain experienced by patient [2]: less pain
- pain experienced by patient [3]: less pain
- pain experienced by patient (neuropathic pain): less pain
- pain experienced by patient [4]: less pain

From patent publication US9688765B2, “Methods using RANK/RANKL antagonist antibodies for treating pain” (Antecip Bioventures II LLC, priority 2014, dated 2017)
